The subject of experiment [1] is T1, DadX.
T1 construct: pET28a-dadX (NheI/XhoI), N-terminal 6xHis tag, E. coli BL21(DE3) Codon Plus, Ni-NTA purified
The experiment can be described thus: coupled spectrophotometric assay, NADH at […] nm (L-alanine dehydrogenase). The experiment is classed as biochemical, Salmonella enterica subsp. enterica serovar Enteritidis. The settings on record: D to L direction; 10 μM PLP, 2.5 mM NAD+, Tris-HCl pH 8.0, 37 °C.

Experiment [2] concerns T2, SEN3897.
T2 construct: gene alr
The settings on record: read-out: D → L / Km; D to L direction; 10 μM PLP, 2.5 mM NAD+, Tris-HCl pH 8.0, 37 °C.

Experiment [3] relates to T1, DadX. Briefly: coupled spectrophotometric assay, NADH at […] nm (D-amino acid aminotransferase / L-lactate dehydrogenase). The format is biochemical, Salmonella enterica subsp. enterica serovar Enteritidis. The settings on record: L to D direction; 10 μM PLP, Tris-HCl pH 8.0, 37 °C.
Experiment [4] concerns T2, SEN3897. The settings on record: read-out: L → D / Km; L to D direction; 10 μM PLP, Tris-HCl pH 8.0, 37 °C.

Each structure is given as a SMILES string. Like-named read-outs stand apart in the source and are kept apart here.

For the compound `C[C@@H](N)C(=O)O` [D-alanine], the results for the Km in the experiment on DadX [1] and with SEN3897 [2] were 52.8 ± 3 mM and 35 ± 6 mM, respectively.

On to `C[C@H](N)C(=O)O` [L-alanine], for which the Km with DadX [3] came out at 58.9 ± 2.7 mM; in the experiment with SEN3897 [4], 89.1 ± 10.2 mM.

Values taken from article PMC6040060, “Identification of a new alanine racemase in Salmonella Enteritidis and its contribution to pathogenesis” (Gut Pathogens, 2018).
